The values that follow come from US20240002365A1, “PYRIDAZINE AND 1,2,4-TRIAZINE DERIVATIVES AS FGFR KINASE INHIBITORS” (BETA PHARMA, INC., priority 2020, published 2024).

For orientation: IC50 means the concentration that gives 50% inhibition. Low values mean greater potency, high ones weaker potency.

The target of one assay is FGFR4 (Homo sapiens (Human), UniProt P22455). The assay is described as follows: RBC HotSpot Kinase Assay (33P-ATP filter-binding). The assay is classed as biochemical. As to conditions: 10 μM ATP. The protocol:
(§1) Biochemical Assay. […] The reaction buffer was 20 mM HEPES (pH 7.5), 10 mM MgCl2, 1 mM EGTA, 0.02% Brij35, 0.02 mg/mL BSA, 0.1 mM Na3VO4, 2 mM DTT, 1% DMSO. The required cofactors are added individually to each kinase reaction. […] The substrate was Poly (Glu, Tyr) sodium salt and the concentration was 0.2 mg/mL (Sigma; cat. #P7244) where the Glu:Tyr (4:1) molecular weight was 5,000-20,000. […] Reactions were carried out at 10 μM ATP. The serial dilution was conducted by Integra Viaflo Assist in DMSO. The reaction procedure was conducted as follows: • 1) Prepare substrate in freshly prepared Reaction Buffer. • 2) MnCl2 (2 mM) was added as a co-factor listed as above. • 3) Deliver kinase into the substrate solution and gently mix. • 4) Deliver compounds in 100% DMSO into the kinase reaction mixture by Acoustic technology (Echo550; nanoliter range), incubate for 20 min at RT. • 5) Deliver 33P-ATP (specific activity 10 μCi/μL) into the reaction mixture to initiate the reaction. • 6) Incubate for 2 hours at RT. • 7) Detect radioactivity by the filter-binding method. • 8) Kinase activity data was expressed as the percent remaining kinase activity in the test sample compared to vehicle (DMSO) reactions.

For another assay, the target named is FGFR3 (Homo sapiens (Human), UniProt P22607). The assay is described as follows: RBC HotSpot Kinase Assay (33P-ATP filter-binding). The assay is classed as biochemical. Conditions: 10 μM ATP. The protocol:
as §1

Another assay has as its target FGFR2 (Homo sapiens (Human), UniProt P21802). The assay is described as follows: RBC HotSpot Kinase Assay (33P-ATP filter-binding). As to conditions: 10 μM ATP. The class given is biochemical. The procedure: as §1
Assay [1] concerns the target T1, FGFR1 (Homo sapiens (Human), UniProt P11362). As to the kind of experiment: RBC HotSpot Kinase Assay (33P-ATP filter-binding). The class given is biochemical. Conditions: 10 μM ATP.
The target of assay [2] is T1, FGFR1. The assay is described as follows: RBC NanoBRET Assay for Target Engagement in HEK293 cells transfected with FGFR1-NanoLuc Fusion vector. The assay is classed as cell-based. As to conditions: 1 hour, tracer K5 1 μM. The protocol:
Cellular Assay. The RBC NanoBRET Assay for Target Engagement was performed by Reaction Biology Corporation, 1 Great Valley Parkway, Suite 2 Malvern, PA 19355, USA. The assay was conducted in HEK293 cells transiently transfected with FGFR1-NanoLuc Fusion vector. The HEK293 cells (ATCC) were transfected with 1 μg of FGFR1-NanoLuc Fusion vector in 384-well format and the transfected cells were subsequently treated with the test compounds (starting at 10 μM, 10-dose with 3-fold dilution) for 1 hour using CTx-0294885 as the reference standard and K5 (1 μM) was used as the tracer. FGFR1 target engagement was measured and the curve fits were performed only when % NanoBret signal at the highest concentration of compounds was less than 55%.

T1 sequence (P11362 22-822): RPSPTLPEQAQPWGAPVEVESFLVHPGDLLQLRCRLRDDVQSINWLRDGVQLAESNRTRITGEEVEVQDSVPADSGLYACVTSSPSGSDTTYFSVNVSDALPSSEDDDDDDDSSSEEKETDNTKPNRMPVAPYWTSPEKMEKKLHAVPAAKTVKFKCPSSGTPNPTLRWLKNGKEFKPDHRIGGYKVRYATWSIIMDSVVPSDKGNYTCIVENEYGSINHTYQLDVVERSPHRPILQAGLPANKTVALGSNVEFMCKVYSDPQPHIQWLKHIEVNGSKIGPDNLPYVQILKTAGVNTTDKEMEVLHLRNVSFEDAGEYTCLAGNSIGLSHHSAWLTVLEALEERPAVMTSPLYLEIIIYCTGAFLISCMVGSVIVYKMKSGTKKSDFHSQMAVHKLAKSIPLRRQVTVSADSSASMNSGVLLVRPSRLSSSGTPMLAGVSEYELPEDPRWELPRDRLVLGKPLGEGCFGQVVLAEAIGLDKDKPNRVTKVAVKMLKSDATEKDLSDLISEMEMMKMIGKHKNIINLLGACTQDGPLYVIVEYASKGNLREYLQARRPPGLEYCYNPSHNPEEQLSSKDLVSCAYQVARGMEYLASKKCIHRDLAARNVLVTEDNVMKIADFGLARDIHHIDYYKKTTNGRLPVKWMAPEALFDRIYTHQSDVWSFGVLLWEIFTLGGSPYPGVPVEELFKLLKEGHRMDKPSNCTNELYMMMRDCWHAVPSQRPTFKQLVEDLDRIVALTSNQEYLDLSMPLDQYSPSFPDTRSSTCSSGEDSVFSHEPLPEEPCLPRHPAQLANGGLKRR
Chain of FGFR4 (P22455 22-802): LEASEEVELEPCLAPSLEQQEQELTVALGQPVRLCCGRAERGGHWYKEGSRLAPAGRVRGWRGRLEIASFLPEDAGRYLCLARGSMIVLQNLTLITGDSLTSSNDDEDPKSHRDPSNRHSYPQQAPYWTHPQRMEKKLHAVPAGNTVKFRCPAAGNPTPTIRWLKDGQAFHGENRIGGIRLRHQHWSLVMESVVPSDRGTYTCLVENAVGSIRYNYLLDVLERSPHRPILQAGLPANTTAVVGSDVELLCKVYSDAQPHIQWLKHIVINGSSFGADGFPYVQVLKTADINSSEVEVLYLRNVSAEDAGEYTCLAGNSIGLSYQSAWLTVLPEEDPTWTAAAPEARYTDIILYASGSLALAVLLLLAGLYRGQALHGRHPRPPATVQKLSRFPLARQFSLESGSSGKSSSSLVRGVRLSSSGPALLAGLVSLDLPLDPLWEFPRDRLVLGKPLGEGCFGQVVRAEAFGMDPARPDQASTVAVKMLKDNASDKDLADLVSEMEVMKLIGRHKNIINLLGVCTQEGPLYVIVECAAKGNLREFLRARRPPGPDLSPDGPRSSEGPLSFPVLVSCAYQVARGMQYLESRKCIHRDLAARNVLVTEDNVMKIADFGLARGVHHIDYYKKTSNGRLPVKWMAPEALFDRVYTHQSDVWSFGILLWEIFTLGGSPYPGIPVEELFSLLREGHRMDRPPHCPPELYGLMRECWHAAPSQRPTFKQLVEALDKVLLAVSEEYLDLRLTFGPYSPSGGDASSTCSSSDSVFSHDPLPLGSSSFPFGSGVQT
Chain of FGFR2 (P21802 22-821): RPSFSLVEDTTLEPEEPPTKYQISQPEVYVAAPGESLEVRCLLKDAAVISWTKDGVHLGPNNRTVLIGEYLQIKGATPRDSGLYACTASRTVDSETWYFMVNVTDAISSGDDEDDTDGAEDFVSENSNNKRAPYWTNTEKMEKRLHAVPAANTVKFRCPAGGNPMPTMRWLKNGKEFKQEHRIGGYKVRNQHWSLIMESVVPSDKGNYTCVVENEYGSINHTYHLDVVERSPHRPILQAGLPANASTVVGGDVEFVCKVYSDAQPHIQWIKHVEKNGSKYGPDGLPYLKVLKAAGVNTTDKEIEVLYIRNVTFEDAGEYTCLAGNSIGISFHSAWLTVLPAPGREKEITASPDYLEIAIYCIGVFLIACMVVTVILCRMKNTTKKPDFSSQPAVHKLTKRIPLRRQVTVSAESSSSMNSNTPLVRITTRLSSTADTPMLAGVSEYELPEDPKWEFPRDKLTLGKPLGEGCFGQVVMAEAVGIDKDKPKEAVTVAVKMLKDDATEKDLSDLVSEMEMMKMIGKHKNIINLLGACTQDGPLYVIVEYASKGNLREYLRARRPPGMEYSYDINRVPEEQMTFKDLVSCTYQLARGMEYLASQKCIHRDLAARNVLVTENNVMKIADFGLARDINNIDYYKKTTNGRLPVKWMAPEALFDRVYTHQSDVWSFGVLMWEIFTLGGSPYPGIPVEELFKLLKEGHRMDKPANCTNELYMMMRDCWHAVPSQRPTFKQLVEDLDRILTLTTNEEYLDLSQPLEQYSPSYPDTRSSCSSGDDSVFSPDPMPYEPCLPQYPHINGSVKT
Chain of FGFR3 (P22607 23-806): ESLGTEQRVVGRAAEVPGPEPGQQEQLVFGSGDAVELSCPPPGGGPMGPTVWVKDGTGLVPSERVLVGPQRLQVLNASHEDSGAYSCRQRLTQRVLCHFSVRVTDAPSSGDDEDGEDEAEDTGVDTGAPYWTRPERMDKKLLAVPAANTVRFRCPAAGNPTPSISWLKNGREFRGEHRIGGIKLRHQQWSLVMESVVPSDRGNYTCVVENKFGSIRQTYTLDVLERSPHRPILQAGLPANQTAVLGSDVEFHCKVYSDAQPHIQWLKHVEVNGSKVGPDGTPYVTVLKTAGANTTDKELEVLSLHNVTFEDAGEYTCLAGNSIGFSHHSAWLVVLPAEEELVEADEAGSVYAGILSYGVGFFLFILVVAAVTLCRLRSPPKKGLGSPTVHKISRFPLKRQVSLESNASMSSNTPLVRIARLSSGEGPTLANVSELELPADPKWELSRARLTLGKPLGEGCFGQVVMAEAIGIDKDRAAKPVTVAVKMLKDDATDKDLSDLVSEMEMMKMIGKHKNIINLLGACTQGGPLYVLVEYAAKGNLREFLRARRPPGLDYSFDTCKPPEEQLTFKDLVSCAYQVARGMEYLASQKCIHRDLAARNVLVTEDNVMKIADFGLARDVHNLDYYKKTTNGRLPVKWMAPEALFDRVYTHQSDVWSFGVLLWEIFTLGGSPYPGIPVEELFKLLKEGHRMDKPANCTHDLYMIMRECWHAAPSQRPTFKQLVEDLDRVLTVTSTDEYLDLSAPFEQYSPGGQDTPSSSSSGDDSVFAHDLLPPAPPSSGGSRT

As to `COc1cc(OC)cc(N(CCNC(C)C)c2ccc3nnc(-c4cnn(C)c4)cc3c2)c1` [Example 1, N^1-(3,5-Dimethoxyphenyl)-N^2-isopropyl-N^1-(3-(1-methyl-1H-pyrazol-4-yl)cinnolin-6-yl)ethane-1,2-diamine], the IC50 on FGFR4 stood at 11 nM; on FGFR3 it was 7.6 nM; at FGFR2, 4.3 nM; on FGFR1 [1] it was 7.3 nM; against FGFR1 [2], 9.5 nM.
